# Read-outs that look alike come from different tables or passages of the source. Marks after values point to notes of the source that are not given here.
# Legend:
# [1] = test system: soybean cyst nematode (SCN); test: SCN greenhouse sand assay on soybean plants; assay type: in vivo, Heterodera glycines
# Text: Soybeans seeds are planted in 100% sand in two inch square plastic pots.
# Chemical treatment is done when the soybeans show the first trifoliate beginning to emerge about 10 to 12 days after planting. At least four hours after chemical application the nematode soybean cyst nematode (SCN) eggs are applied and 28 days after the egg inoculation the test is harvested.
# One milligram of chemistry per four pots is equal to one kilogram per hectare of chemical. A standard test uses four replications. For rates above 2 kg/ha, the desired amount of chemical is weighed into a 30 ml vial (example: 8 kg/ha rate=8 mg chemical in 30 ml vial). The chemical is dissolved in 2 ml of appropriate solvent, generally acetone. For rates below 2 kg/ha, 2 milligrams of chemistry is weighed into the vial and dissolved in 2 ml of the solvent. The appropriate amount of chemical concentrate is then pipetted into a separate 30 ml vial and solvent is added to bring the volume to 2 ml (example 0.5 kg/ha=0.5 ml of concentrate+1.5 ml solvent). Each dissolved concentrate is then brought to a total of 20 milliliters using 0.05% Triton X 100 surfactant solution.
# Pots to be treated are moist but not saturated. To each of four pots, five milliliters of the appropriate chemical solution is pipetted to the media surface making sure to avoid contact with the base of the plant. Immediately following chemical application, using a mist nozzle, the pot surface is wetted sufficiently to saturate the pot watering in the chemistry. The chemical application is done in the morning.
# Nematode eggs, either SCN or RKN, are added to distilled water to create a concentration of 1000 vermiform eggs […]. At least four hours after chemical treatment the eggs are applied to the treated pots plus non-treated check plants. A small hole about 1 cm deep is punched into the pot surface. One milliliter of the nematode egg slurry is pipetted into the hole. Immediately afterwards the hole is gently covered. Watering of the test plants is then restricted to only water as needed to prevent wilt for a period of 24 hours. After the 24 hour restricted watering, normal sub-irrigation watering is done for the duration of the test.
# [2] = test system: sting (Belonolaimus longicaudatus) nematodes; test: Sting nematode bench top soil assay; assay type: in vivo
# [3] = test system: caspase-3 in rat hepatoma derived H4IIE cells; test: Caspase-3 activity (DEVD-AMC) after compound exposure in H4IIE cells; assay type: cell-based; settings: concentrations up to 300 μM
# Protocol: Caspase 3 cleaves the tetrapeptide between D and AMC, thus releasing the fluorogenic […] AMC. Following the test article exposure to cells in 96-well plates, medium was aspirated from plates and PBS added to each well. Plates were stored at −80° C. to lyse cells and store samples until further analysis. On the day of analysis, plates were removed from freezer and thawed. Caspase buffer with fluorescent substrate was added to each well and incubated at room temperature for one hour. AMC release was measured in a spectrofluorometer at an excitation wavelength of 360 nm and an emission wavelength of 460 nm. Values are expressed as relative fluorescent units (RFU).
# [4] = test system: CD-1/Swiss derived albino mice; assay type: in vivo; settings: for mortality, signs of gross toxicity and behavioral changes: three female mice, observed up to 14 days
# Protocol: Acute oral toxicity testing was performed in mice in accordance with test method P203.UDP, as administered by Eurofins/Product Safety Laboratories (Dayton, N.J.). CD-1/Swiss derived albino mice were obtained and group housed in suspended solid bottom caging. The mice were fed rodent chow and filtered tap water was supplied ad libitum. Following acclimation to the laboratory setting, a group of animals was fasted overnight by removing food from the cages. After the fasting period, three female mice were selected based on vitality and initial body weights. The individual compound doses were calculated from these body weights.
# The test substance was prepared as a 1% (50 mg/kg) or 5% (500 mg/kg) weight to weight (w/w) mixture in a 0.5% w/w solution of carboxymethylcellulose (CMC) in distilled water. A tissue homogenizer was used to create a homogeneous mixture. A dose of 50 or 500 mg/kg was administered to three healthy mice per dose level by oral intubation using a ball-tipped gavage needle attached to a syringe. After administration, the animals were returned to their cages, and feed was replaced immediately after dosing.
# Body weights were recorded prior to initiation and on Days 7 and 14 or a soon as possible after death.
# [5] = test system: Meloidogyne incognita (RKN); test: Seed treatment test of root knot nematode on cucumber plants; assay type: in vivo; settings: 20 mg ai/gram seed, cucumber seeds
# Protocol: For a given concentration the chemical is dissolved in 500 ul of acetone and one gram of cucumber seed (RKN test) or soybean seed (SCN test) is added (e.g., 20 mg active ingredient in 500 ul acetone plus 1 gram of seed). The seed solutions are agitated until all seeds were thoroughly covered with the chemical solution. The acetone is then allowed to evaporate by air drying the seeds. The seeds are planted in 2-inch pots containing sandy soil and then the pots are inoculated with 1000 Meloidogyne incognita (RKN) or 1000 Heterodera glycines (SCN) eggs per pot three days after planting. Plants are rated for galling 14 days after egg inoculation for RKN or 28 days after egg inoculation for SCN.
# [6] = test system: Caenorhabditis elegans ced-3(n717) and ced-4(N1162) mutants; test: Susceptibility of apoptosis-defective C. elegans mutants on NGM agar plates; assay type: in vivo; settings: 10 μg/ml on NGM agar plates
compound,measurement,setting,value
"CCOP(=O)(NC(C)C)Oc1ccc(SC)c(C)c1 (stereo not drawn) [Fenamiphos, fenamiphos, reference compound]",percent control (cyst number reduction) relative to the control blank treatment,"[1]; 0.1 kg/ha, test d",5^d percent
same,percent control (cyst number reduction) relative to the control blank treatment,"[1]; 0.25 kg/ha, test d",26^d percent
same,percent control (cyst number reduction) relative to the control blank treatment,"[1]; 1 kg/ha, test a",98^a percent
same,percent control (cyst number reduction) relative to the control blank treatment,"[1]; 1 kg/ha, test b",98^b percent
same,percent control (cyst number reduction) relative to the control blank treatment,"[1]; 1 kg/ha, test c",94^c percent
same,Number of nematodes recovered from treated soil after 3 days incubation with the compound,[2]; Other: 11.1 kg fenamiphos as positive control,20
c1ccc(-c2noc(-c3cccs3)n2)cc1 [compound 1822],induction of caspase-3 (apoptosis marker),[3],no induction of caspase-3
same,"mortality, signs of gross toxicity and behavioral changes",[4]; 50 mg/kg oral,"all animals survived, gained body weight, and appeared active and healthy"
same,"mortality, signs of gross toxicity and behavioral changes",[4]; 500 mg/kg oral,all animals died within three days
same,percent control (galling reduction) relative to the control blank treatment,[5],76%
Brc1ccc(-c2cnc(-c3cccs3)o2)cc1 [compound 4776],Number of nematodes recovered from treated soil after 3 days incubation with the compound,[2]; 2 kg/ha,16
same,Number of nematodes recovered from treated soil after 3 days incubation with the compound,[2]; 4 kg/ha,19
same,Number of nematodes recovered from treated soil after 3 days incubation with the compound,[2]; 10 kg/ha,20
same,"mortality, signs of gross toxicity and behavioral changes",[4]; 500 mg/kg oral,two animals died within three days
same,oral toxicity,"[4]; mice, oral, estimate based on the 50 and 500 mg/kg studies",lower than 500 mg/kg
same,percent control (galling reduction) relative to the control blank treatment,[5],58%
Cc1cc(Cl)ccc1-c1noc(-c2ccco2)n1 [compound 5823],induction of caspase-3 (apoptosis marker),[3],no induction of caspase-3
same,"difference in susceptibility between wild-type (N2 Bristol) and ced-3 and ced-4 mutants, including time to mortality",[6],No observable phenotypic difference in susceptibility

# From patent US10827753B2, “Compositions and methods for controlling nematodes” (Monsanto Technology LLC, priority 2007, dated 2020)
